Results from PubChem BioAssay (NCI).
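Protocol summary: plate cells (96-well), add compound at 5 concentrations, incubate 48 h, interpolate endpoints linearly. Here, GI50 denotes the concentration required for 50% inhibition of growth. The concentration for full growth arrest is given as TGI.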

Key:
Assay in all cases: growth of human tumour cells (NCI), 48 h
[1] = tested on: UO-31 renal
[2] = tested on: A549 NSCLC
[3] = tested on: MDA-MB-231 breast
[4] = tested on: SR leukemia
[5] = tested on: OVCAR-5 ovarian
[6] = tested on: M14 melanoma
[7] = tested on: T-47D breast
[8] = tested on: BT-549 breast
[9] = tested on: HOP-62 NSCLC
[10] = tested on: SK-MEL-5 melanoma
[11] = tested on: CAKI-1 renal
[12] = tested on: MDA-MB-435
[13] = tested on: NCI-H226 lung
[14] = tested on: SNB-75 CNS
[15] = tested on: IGROV1 ovarian
[16] = tested on: NCI/ADR-RES ovarian
[17] = tested on: A498 renal
[18] = tested on: SK-MEL-28 melanoma
[19] = tested on: MALME-3M melanoma
[20] = tested on: KM12 colon
[21] = tested on: CCRF-CEM leukemia
[22] = tested on: UACC-257 melanoma
[23] = tested on: HT29 colon
[24] = tested on: UACC-62 melanoma
[25] = tested on: HCT-116 colon
[26] = tested on: PC-3 prostate
[27] = tested on: COLO 205 colon
[28] = tested on: OVCAR-3 ovarian
[29] = tested on: HS 578T breast
[30] = tested on: RXF 393 renal
[31] = tested on: HL-60(TB) leukemia
[32] = tested on: DU-145 prostate
[33] = tested on: SNB-19 CNS
[34] = tested on: K-562 leukemia
[35] = tested on: SW-620 colon
[36] = tested on: HCT-15 colon
[37] = tested on: SK-OV-3 ovarian
[38] = tested on: MCF7 breast
[39] = tested on: HOP-92 NSCLC
[40] = tested on: MOLT-4 leukemia
[41] = tested on: 786-0 renal
[42] = tested on: OVCAR-4 ovarian
[43] = tested on: LOX IMVI melanoma
[44] = tested on: TK-10 renal
[45] = tested on: NCI-H23 lung
[46] = tested on: SN12C renal
[47] = tested on: EKVX NSCLC
[48] = tested on: ACHN renal
[49] = tested on: U251 CNS
[50] = tested on: SK-MEL-2 melanoma
[51] = tested on: SF-268 CNS
[52] = tested on: NCI-H522 lung
[53] = tested on: OVCAR-8 ovarian
[54] = tested on: NCI-H460 lung
[55] = tested on: SF-539 CNS
[56] = tested on: SF-295 CNS
[57] = tested on: RPMI-8226 leukemia

With `O=C1NN(c2ccccc2)C(=O)/C1=C/c1ccc(Br)o1` the GI50 [1] was 8.8 µM, the TGI [1] was over 64.1 µM and the GI50 [2] was 12 µM. It also gave a TGI [2] of 44.4 µM, a TGI [3] of 20.9 µM and a GI50 [4] of 2.62 µM. For the same molecule, the TGI [4] was 8.3 µM, the GI50 [5] was 14.2 µM and the TGI [5] was 30.6 µM. For the same molecule, the TGI [6] was 16.2 µM, the GI50 [7] was 18.9 µM and the TGI [7] was 52.3 µM. For the same molecule, the TGI [8] was 17.2 µM, the TGI [9] was 21.4 µM and the GI50 [10] was 1.26 µM. For the same molecule, the TGI [10] was 2.05 µM, the GI50 [11] was 5.8 µM and the TGI [11] was 20.8 µM. The GI50 [12] was 6.65 µM, the TGI [12] was 23.8 µM and the GI50 [13] was 13.5 µM. It also gave a TGI [13] of 34.7 µM, a GI50 [14] of 24.3 µM and a TGI [14] of 58.6 µM. The GI50 [15] was 5.19 µM, the TGI [15] was 35 µM and the GI50 [16] was 15.8 µM. The TGI [16] was 54.8 µM, the GI50 [17] was 23 µM and the TGI [17] was 53.9 µM. For the same molecule, the GI50 [18] was 7.03 µM, the TGI [18] was 29.8 µM and the TGI [19] was 0.972 µM. For the same molecule, the GI50 [20] was 9.71 µM, the TGI [20] was 24 µM and the GI50 [21] was 5.23 µM. The TGI [21] was 19.8 µM, the GI50 [22] was 15.4 µM and the TGI [22] was 37.3 µM. For the same molecule, the GI50 [23] was 4.21 µM, the TGI [23] was 22.1 µM and the GI50 [24] was 11.8 µM. The TGI [24] was 24.3 µM, the GI50 [25] was 11.4 µM and the TGI [25] was 25.8 µM. The GI50 [26] was 6.9 µM, the TGI [26] was 26.3 µM and the GI50 [27] was 3.75 µM. For the same molecule, the TGI [27] was 11.2 µM, the GI50 [28] was 1.07 µM and the TGI [28] was 13.2 µM. For the same molecule, the GI50 [29] was 1.49 µM, the TGI [29] was 3.11 µM and the GI50 [30] was 1.02 µM. For the same molecule, the TGI [30] was 2.04 µM, the GI50 [31] was 10.5 µM and the TGI [31] was over 81.1 µM. For the same molecule, the GI50 [32] was 1.45 µM, the TGI [32] was 11.2 µM and the GI50 [33] was 17.5 µM. It also gave a TGI [33] of 41.9 µM, a GI50 [34] of 14.1 µM and a TGI [34] of over 77.7 µM. It also gave a GI50 [35] of 4.85 µM, a TGI [35] of 24.5 µM and a GI50 [36] of 10.1 µM. It also gave a TGI [36] of 24.7 µM, a GI50 [37] of 26.7 µM and a TGI [37] of over 61.4 µM. The GI50 [38] was 3.54 µM, the TGI [38] was 18.9 µM and the TGI [39] was 3.33 µM. It also gave a GI50 [40] of 6.06 µM, a TGI [40] of 24.6 µM and a GI50 [41] of 19.8 µM. The TGI [41] was 53.2 µM, the GI50 [42] was 15.3 µM and the TGI [42] was 29.5 µM. For the same molecule, the GI50 [43] was 5.42 µM, the TGI [43] was 22.4 µM and the GI50 [44] was 13.2 µM. For the same molecule, the TGI [44] was 33.7 µM, the GI50 [45] was 15.6 µM and the TGI [45] was 36.1 µM. For the same molecule, the GI50 [46] was 0.951 µM, the TGI [46] was 21.3 µM and the GI50 [47] was 1.54 µM. It also gave a TGI [47] of 36.6 µM, a GI50 [48] of 13.3 µM and a TGI [48] of over 49.4 µM. The GI50 [49] was 1.57 µM, the TGI [49] was 19.8 µM and the GI50 [50] was 15.8 µM. For the same molecule, the TGI [50] was 44.7 µM, the GI50 [51] was 14 µM and the TGI [51] was 47.7 µM. It also gave a GI50 [52] of 7.92 µM, a TGI [52] of 36.8 µM and a GI50 [53] of 11 µM. The TGI [53] was 41.6 µM, the GI50 [54] was 15.1 µM and the TGI [54] was 36 µM. For the same molecule, the GI50 [55] was 20.5 µM, the TGI [55] was 41.9 µM and the TGI [56] was 2.56 µM. The GI50 [57] was 0.777 µM and the TGI [57] was 10.9 µM.
